Experimental findings from patent publication US9125940B2, “Compositions and methods for treating macular edema” (priority 2011, dated 2015) are described below.

This test relates to macular edema. In words: Case report Example 1: patient with macular edema after central vein occlusion in the left eye, OCT, vision acuity and eye pressure. It is filed as in vivo, human. From the text:
A patient experienced central vein occlusion in their left eye and subsequently suffered macular edema in 2005. Weak drusens were found in both of their eyes. […] The patient received corsteroid injection in the left eye. The macular edema went away for four months. However, the left eye pressure went up to 35-40 mmHg. Eye drops for lowering eye pressure were used to treat the high eye pressure. Within half a year, the patient developed cataract in their left eye and shortly thereafter advanced to a point that their left eye lost most vision and the eye specialist recommended surgery to remove the cataract. At the time of the surgery, it was discovered that the patient's macular edema had come back and it was rather severe. Avastin injection was then employed to treat macular edema. The edema went away for a month but still came back 2-3 months afterwards. At this point, the patient was notified that regular injection would be required for the rest of their life. As shown in the images from Optical Coherence Tomography (OCT) (FIG. 1), macular edema returned three months after the Avastin injection. Such was a repeated phenomenon since 2005, for more than three years. Macular edema re-occurred typically 3 months following Avastin injection. […].

Where [1] appears, read: June 2008, before treatment with the composition, FIG. 1.

Turning to “Avastin: Avastin injection employed to treat macular edema (anti-VEGF)”, under setting [1], the “ocular pressure three months after injection” value was determined as 35 mmHg and the “vision acuity three months after injection” value was 20/40. Besides, the “time to re-occurrence of macular edema following injection” value (left eye, intravitreal injection, repeated for more than three years) is recorded as around 3 months.
